Like-named read-outs stand apart in the source and are kept apart here.
Assays:
[1] = rat liver, cited from earlier work
[2] = tested on: Mycobacterium tuberculosis; conditions: at 10 millimolar

Row | Structure (SMILES) | removal of toxin ([1]; intravenous) [%] | removal of toxin ([1]; oral) [%] | Mycobacterium tuberculosis CFU/ml [2]
1 | N[C@@H](CCC(=O)N[C@@H](CS)C(=O)NCC(=O)O)C(=O)O [Plain glutathione, glutathione] | 64 | 0 | 
2 | CC(=O)N[C@@H](CS)C(=O)O [NAC, N-Acetyl Cysteine] |  |  | 8,000 CFU/ml

— US9913801B2 (YOUR ENERGY SYSTEMS, LLC, priority 2013, dated 2018)
